For this assay, the target named is APJ receptor (Homo sapiens (Human), UniProt P35414). Nature of the assay: [35S]GTPγS binding assay on membranes from CHO cells stably expressing human APJ receptor. It counts as biochemical. Particulars: membranes of CHO cells stably expressing human APJ receptor, means of several independent experiments, read-out: Activity hAPJ SPA EC50 IP. The essentials: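 Membranes from CHO cells stably expressing human APJ were incubated with 0.2 nM [35S]GTPγS and ligands for 90 min at RT in 20 mM HEPES pH 7.5, 5 mM MgCl2, 200 mM NaCl, 3 μM GDP, 0.1% BSA with WGA PS beads. Nonspecific binding was set with 100 μM GTPγS. EC50 came from non-linear regression.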
Chain of APJ receptor (P35414 whole entry): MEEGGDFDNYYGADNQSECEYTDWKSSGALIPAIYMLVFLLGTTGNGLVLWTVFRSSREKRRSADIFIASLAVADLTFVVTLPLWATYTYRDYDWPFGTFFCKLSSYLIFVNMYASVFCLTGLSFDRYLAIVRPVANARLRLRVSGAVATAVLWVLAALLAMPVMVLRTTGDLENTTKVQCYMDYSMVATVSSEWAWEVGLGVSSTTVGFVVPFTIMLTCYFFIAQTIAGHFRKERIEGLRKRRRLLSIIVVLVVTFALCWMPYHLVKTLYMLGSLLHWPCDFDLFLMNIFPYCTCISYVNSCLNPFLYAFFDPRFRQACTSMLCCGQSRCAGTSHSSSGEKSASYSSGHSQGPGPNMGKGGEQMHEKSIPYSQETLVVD

Consider `COc1cccc(OC)c1-n1c(NS(=O)(=O)CCc2ncc(Cl)cc2CCN2CCC2)nnc1-c1ccco1` [Example 235.0, 2-(3-(2-(1-Azetidinyl)ethyl)-5-chloro-2-pyridinyl)-N-(4-(2,6-dimethoxyphenyl)-5-(2-furanyl)-4H-1,2,4-triazol-3-yl)ethanesulfonamide], for which the EC50 (commonly the concentration needed to bring the measured effect to its halfway point) is 0.56 nM. Next, `COc1cccc(OC)c1-n1c(NS(=O)(=O)[C@H]2C[C@@H](O)CN(c3cncc(C#N)n3)C2)nnc1-c1ccc(C)o1` (single isomer, unassigned) [Example 321.0, (3S,5R)-1-(6-Cyano-2-pyrazinyl)-N-(4-(2,6-dimethoxyphenyl)-5-(5-methyl-2-furanyl)-4H-1,2,4-triazol-3-yl)-5-hydroxy-3-piperidinesulfonamide or (3R,5S)-1-(6-cyano-2-pyrazinyl)-N-(4-(2,6-dimethoxyphenyl)-5-(5-methyl-2-furanyl)-4H-1,2,4-triazol-3-yl)-5-hydroxy-3-piperidinesulfonamide]: 0.18 nM.

`COC[C@H](C)n1c(NS(=O)(=O)[C@@H](C)[C@H](C)c2ncc(Cl)cn2)nnc1-c1ccc(C)o1` [Example 398.0, (2S,3R)-3-(5-chloro-2-pyrimidinyl)-N-(4-((2S)-1-methoxy-2-propanyl)-5-(5-methyl-2-furanyl)-4H-1,2,4-triazol-3-yl)-2-butanesulfonamide]: the half-maximal effective concentration (EC50) came out at 10 nM. Consider `CCOC(=O)[C@@H]1C[C@H](S(=O)(=O)Nc2nnc(-c3ccco3)n2-c2c(OC)cccc2OC)CN(c2ncc(F)cn2)C1` (single isomer, unassigned) [Example 156.0, Ethyl (3R,5S)-5-((4-(2,6-Dimethoxyphenyl)-5-(2-furanyl)-4H-1,2,4-triazol-3-yl)sulfamoyl)-1-(5-fluoro-2-pyrimidinyl)-3-piperidinecarboxylate or Ethyl (3S,5R)-5-((4-(2,6-dimethoxyphenyl-5-(2-furanyl)-4H-1,2,4-triazol-3-yl)sulfamoyl)-1-(5-fluoro-2-pyrimidinyl)-3-piperidinecarboxylate], for which the concentration for a half-maximal effect (EC50) stood at 0.36 nM.

For `COc1cccc(OC)c1-n1c(NS(=O)(=O)[C@@H]2C[C@H](O)CN(c3cnc(Cl)c(C#N)c3)C2)nnc1-c1ccc(C)o1` (mixture of isomers) [Example 322.0, (3S,5R)-1-(6-Chloro-5-cyano-3-pyridinyl)-N-(4-(2,6-dimethoxyphenyl)-5-(5-methyl-2-furanyl)-4H-1,2,4-triazol-3-yl)-5-hydroxy-3-piperidinesulfonamide and (3R,5S)-1-(6-chloro-5-cyano-3-pyridinyl)-N-(4-(2,6-dimethoxyphenyl)-5-(5-methyl-2-furanyl)-4H-1,2,4-triazol-3-yl)-5-hydroxy-3-piperidinesulfonamide], the 50% effective concentration (EC50) was 0.2 nM. With `COc1cccc(OC)c1-n1c(NS(=O)(=O)C[C@H](O)c2ccc(C#N)cn2)nnc1-c1ccc(C)o1` (single isomer, unassigned) [Example 66.0, (2R)-2-(5-Cyano-2-pyridinyl)-N-(4-(2,6-dimethoxyphenyl)-5-(5-methyl-2-furanyl)-4H-1,2,4-triazol-3-yl)-2-hydroxyethanesulfonamide or (2S)-2-(5-cyano-2-pyridinyl)-N-(4-(2,6-dimethoxyphenyl)-5-(5-methyl-2-furanyl)-4H-1,2,4-triazol-3-yl)-2-hydroxyethanesulfonamide], the EC50 amounted to 0.32 nM. The result for “(1R,2R)-N-(4-(2,6-dimethoxyphenyl)-5-(5-methyl-2-furanyl)-4H-1,2,4-triazol-3-yl)-1-methoxy-1-(5-methyl-2-pyrimidinyl)-2-propanesulfonamide or (1S,2S)-N-(4-(2,6-dimethoxyphenyl)-5-(5-methyl-2-furanyl)-4H-1,2,4-triazol-3-yl)-1-methoxy-1-(5-methyl-2-pyrimidinyl)-2-propanesulfonamide [Example 250.0]” reads 3.3 nM. As for `COc1cccc(OC)c1-n1c(NS(=O)(=O)[C@H](C)[C@H](O)c2cn3ccccc3n2)nnc1-c1ccc(C)o1` (racemic) [Example 285.0, (1R,2R)—N-(4-(2,6-Dimethoxyphenyl)-5-(5-methyl-2-furanyl)-4H-1,2,4-triazol-3-yl)-1-hydroxy-1-imidazo[1,2-a]pyridin-2-yl-2-propanesulfonamide and (1S,2S)—N-(4-(2,6-dimethoxyphenyl)-5-(5-methyl-2-furanyl)-4H-1,2,4-triazol-3-yl)-1-hydroxy-1-imidazo[1,2-a]pyridin-2-yl-2-propanesulfonamide], the EC50 came out at 2.5 nM. The result for `COc1ccccc1-n1c(NS(=O)(=O)[C@@H](C)Cc2ncc(F)cn2)nnc1-c1ccco1.COc1ccccc1-n1c(NS(=O)(=O)[C@H](C)Cc2ncc(F)cn2)nnc1-c1ccco1` (mixture of isomers) [Example 310.0, (2S)-1-(5-Fluoro-2-pyrimidinyl)-N-(5-(2-furanyl)-4-(2-methoxyphenyl)-4H-1,2,4-triazol-3-yl)-2-propanesulfonamide and (2R)-1-(5-fluoro-2-pyrimidinyl)-N-(5-(2-furanyl)-4-(2-methoxyphenyl)-4H-1,2,4-triazol-3-yl)-2-propanesulfonamide] reads 83 nM; that for `COc1cccc(OC)c1-n1c(NS(=O)(=O)[C@H]2C[C@@H](O)CN(c3cncc(C#N)c3)C2)nnc1-c1ccc(C)o1` [Example 334.0, (3S,5R)-1-(5-Cyanopyridin-3-yl)-N-(4-(2,6-dimethoxyphenyl)-5-(5-methylfuran-2-yl)-4H-1,2,4-triazol-3-yl)-5-hydroxypiperidine-3-sulfonamide and (3S,5R)-1-(5-cyanopyridin-3-yl)-N-(4-(2,6-dimethoxyphenyl)-5-(5-methylfuran-2-yl)-4H-1,2,4-triazol-3-yl)-5-hydroxypiperidine-3-sulfonamide], 0.47 nM; that for `C[C@@H](Cc1ncc(F)cn1)S(=O)(=O)Nc1nnc(-c2ccco2)n1C1CCCCC1.C[C@H](Cc1ncc(F)cn1)S(=O)(=O)Nc1nnc(-c2ccco2)n1C1CCCCC1` (mixture of isomers) [Example 313.0, (2R)—N-(4-Cyclohexyl-5-(2-furanyl)-4H-1,2,4-triazol-3-yl)-1-(5-fluoro-2-pyrimidinyl)-2-propanesulfonamide and (2S)—N-(4-cyclohexyl-5-(2-furanyl)-4H-1,2,4-triazol-3-yl)-1-(5-fluoro-2-pyrimidinyl)-2-propanesulfonamide], 230 nM. Consider `COc1cccc(OC)c1-n1c(NS(=O)(=O)[C@H]2CON(C)[C@@H]2c2ncc(F)cn2)nnc1-c1ccco1` (single isomer, unassigned) [Example 343.0, (3R,4R)—N-(4-(2,6-Dimethoxyphenyl)-5-(furan-2-yl)-4H-1,2,4-triazol-3-yl)-3-(5-fluoropyrimidin-2-yl)-2-methylisoxazolidine-4-sulfonamide or (3S,4S)—N-(4-(2,6-dimethoxyphenyl)-5-(furan-2-yl)-4H-1,2,4-triazol-3-yl)-3-(5-fluoropyrimidin-2-yl)-2-methylisoxazolidine-4-sulfonamide], for which the concentration giving a half-maximal response (EC50) amounted to 200 nM. Next, `COCC[C@@H](Cc1ncc(C)cn1)S(=O)(=O)Nc1nnc(-c2ccc(C)o2)n1-c1c(OC)cccc1OC` (racemic) [Example 76.0, (2R)—N-(4-(2,6-dimethoxyphenyl)-5-(5-methyl-2-furanyl)-4H-1,2,4-triazol-3-yl)-4-methoxy-1-(5-methyl-2-pyrimidinyl)-2-butanesulfonamide and (2S)—N-(4-(2,6-dimethoxyphenyl)-5-(5-methyl-2-furanyl)-4H-1,2,4-triazol-3-yl)-4-methoxy-1-(5-methyl-2-pyrimidinyl)-2-butanesulfonamide]: 0.6 nM. Turning to `COc1cccc(OC)c1-n1c(NS(=O)(=O)[C@H](C)Cc2ccc(C)nn2)nnc1-c1ccc(C)o1` (single isomer, unassigned) [Example 31.0, (2R)—N-(4-(2,6-dimethoxyphenyl)-5-(5-methyl-2-furanyl)-4H-1,2,4-triazol-3-yl)-1-(6-methyl-3-pyridazinyl)-2-propanesulfonamide or (2S)—N-(4-(2,6-dimethoxyphenyl)-5-(5-methyl-2-furanyl)-4H-1,2,4-triazol-3-yl)-1-(6-methyl-3-pyridazinyl)-2-propanesulfonamide], the concentration for a half-maximal effect (EC50) worked out at 1.9 nM. Next, `COc1cccc(OC)c1-n1c(NS(=O)(=O)[C@H](C)Cc2cnc(C)cn2)nnc1-c1ccc(C)o1` (single isomer, unassigned) [Example 24.0, (2R)—N-(4-(2,6-dimethoxyphenyl)-5-(5-methyl-2-furanyl)-4H-1,2,4-triazol-3-yl)-1-(5-methyl-2-pyrazinyl)-2-propanesulfonamide or (2S)—N-(4-(2,6-dimethoxyphenyl)-5-(5-methyl-2-furanyl)-4H-1,2,4-triazol-3-yl)-1-(5-methyl-2-pyrazinyl)-2-propanesulfonamide]: 0.36 nM; `COc1cccc(OC)c1-n1c(NS(=O)(=O)CCN2C(=O)N(C)CC[C@H]2C)nnc1-c1ccc(C)o1` (mixture of isomers) [Example 160.0, N-(4-(2,6-Dimethoxyphenyl)-5-(5-methyl-2-furanyl)-4H-1,2,4-triazol-3-yl)-2-((6R)-3,6-dimethyl-2-oxotetrahydro-1 (2H)-pyrimidinyl)ethanesulfonamide and N-(4-(2,6-dimethoxyphenyl)-5-(5-methyl-2-furanyl)-4H-1,2,4-triazol-3-yl)-2-((6S)-3,6-dimethyl-2-oxotetrahydro-1(2H)-pyrimidinyl)ethanesulfonamide]: 0.5 nM; “(1S,2R)-N-(4-(2,6-dimethoxyphenyl)-5-(5-methyl-2-furanyl)-4H-1,2,4-triazol-3-yl)-1-hydroxy-1-(5-methyl-2-pyrazinyl)-2-propanesulfonamide or (1R,2S)-N-(4-(2,6-dimethoxyphenyl)-5-(5-methyl-2-furanyl)-4H-1,2,4-triazol-3-yl)-1-hydroxy-1-(5-methyl-2-pyrazinyl)-2-propanesulfonamide [Example 213.0]”: 0.12 nM.

Source of the values: patent US10736883B2, “Triazole furan compounds as agonists of the APJ receptor” (AMGEN INC., priority 2016, dated 2020).
